According to publication PMC8903829 (eLife, 2022):
Read-outs that look alike come from different tables or passages of the source.

Experiments:
Sprague Dawley rats = assay: Observation of potential adverse behavior (behavioral signs) in the rat DC-MES studies; type: in vivo; settings: for behavioral signs concentration (BSC) / plasma EC50 ratio (Tolerability / EC50 Rat MES): rat DC-MES
Method: Animals were observed by the scientist(s) responsible for dosing for the first 30 min after dosing for and again at the time of assay (2 hr post dose) for signs of abnormal behavior.

wild-type mice (CF-1) = assay: DC-Maximal electroshock seizure assay (DC-MES); type: in vivo, mouse
In short: (§1)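 Compounds given 2 hr before corneal DC electroshock; phenytoin i.p. in saline. CF1 mice (9–12 weeks): 50 mA, 60 Hz, 0.2 s; SD rats (5–6 weeks): 150 mA, 60 Hz, 0.3 s; 0.5 ms pulse width, eyes anaesthetised with proparacaine. Absence of tonic-clonic hindlimb extension scored protected (0), blinded scoring.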

[1] = Bioanalytical assessment of plasma and brain concentrations after mouse DC-MES assay; type: in vivo; settings: mouse, in vivo, WT mouse DC-MES acute
In short: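 Blood (cardiac puncture, EDTA) and whole brains taken at end of the in vivo assay; brain homogenized in 1:1 acetonitrile/water. Plasma and homogenate extracted by acetonitrile protein precipitation with internal standard, quantified by UHPLC-ESI-MS/MS against a 1/X-weighted linear calibration.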

[2] = tested on: wild-type Sprague Dawley rats; assay: DC-Maximal electroshock seizure assay (DC-MES); type: in vivo, rat; settings: for EC50: Rattus norvegicus
In short: as §1

[3] = Bioanalytical assessment of plasma and brain concentrations after rat DC-MES assay; type: in vivo; settings: rat, in vivo, Rat DC-MES

COC[C@@H](NC(C)=O)C(=O)NCc1ccccc1 [lacosamide, Lacosamide, reference compound]
minimal plasma concentration provoking behavioral signs (BSC) (Sprague Dawley rats; rat): 123 µM
behavioral signs concentration (BSC) / plasma EC50 ratio (Tolerability / EC50 Rat MES) (Sprague Dawley rats): 5.0 fold
behavioral signs concentration (BSC) / plasma EC50 ratio (Tolerability / EC50 Rat MES) (Sprague Dawley rats; listed as Lacosamide): 6.3 fold
EC50 (wild-type mice (CF-1); Mus musculus, 2 h, read-out: brain EC50): 7.1 µM
WT mouse DC-MES acute Fraction of animals seizing (wild-type mice (CF-1); Study18003, 3 mg/kg): 0.625
WT mouse DC-MES acute Fraction of animals seizing (wild-type mice (CF-1); Study18003, 10 mg/kg): 0.375
WT mouse DC-MES acute Fraction of animals seizing (wild-type mice (CF-1); Study18003, 30 mg/kg): 0.125
WT mouse DC-MES acute Fraction of animals seizing (wild-type mice (CF-1); Study18053, 3 mg/kg): 0.6667
WT mouse DC-MES acute Fraction of animals seizing (wild-type mice (CF-1); Study18063, 3 mg/kg): 0.75
concentration at 2 h ([1]; 3 mg/kg, Study18003, 3 mg/kg, read-out: Mean [Brain]): 3.47 µM
concentration at 2 h ([1]; 3 mg/kg, Study18003, 3 mg/kg, read-out: Mean [Palsma]): 3.25 µM
concentration at 2 h ([1]; 3 mg/kg, Study18053, 3 mg/kg, read-out: Mean [Brain]): 1.95 µM
concentration at 2 h ([1]; 3 mg/kg, Study18053, 3 mg/kg, read-out: Mean [Palsma]): 6.21 µM
concentration at 2 h ([1]; 3 mg/kg, Study18063, 3 mg/kg, read-out: Mean [Brain]): 1.26 µM
concentration at 2 h ([1]; 3 mg/kg, Study18063, 3 mg/kg, read-out: Mean [Palsma]): 4.46 µM
concentration at 2 h ([1]; 10 mg/kg, Study18003, 10 mg/kg, read-out: Mean [Brain]): 11.5 µM
concentration at 2 h ([1]; 10 mg/kg, Study18003, 10 mg/kg, read-out: Mean [Palsma]): 9.52 µM
concentration at 2 h ([1]; 30 mg/kg, Study18003, 30 mg/kg, read-out: Mean [Brain]): 34.3 µM
concentration at 2 h ([1]; 30 mg/kg, Study18003, 30 mg/kg, read-out: Mean [Palsma]): 26.7 µM
EC50 ([2]; 2 h, read-out: brain EC50): 4.3 µM
EC50 ([2]; read-out: plasma EC50): 24.4 µM
Rat DC-MES Fraction of animals seizing ([2]; Study18060, 2 mg/kg): 1
Rat DC-MES Fraction of animals seizing ([2]; Study18060, 6 mg/kg): 0.8571
Rat DC-MES Fraction of animals seizing ([2]; Study18060, 12 mg/kg): 0.5714
Rat DC-MES Fraction of animals seizing ([2]; Study18068, 100 mg/kg): 0
concentration at 2 h ([3]; 2 mg/kg, Study18060, 2 mg/kg, read-out: Mean [Brain]): 0.641 µM
concentration at 2 h ([3]; 2 mg/kg, Study18060, 2 mg/kg, read-out: Mean [Palsma]): 2.97 µM
concentration at 2 h ([3]; 6 mg/kg, Study18060, 6 mg/kg, read-out: Mean [Brain]): 1.78 µM
concentration at 2 h ([3]; 6 mg/kg, Study18060, 6 mg/kg, read-out: Mean [Palsma]): 8.43 µM
concentration at 2 h ([3]; 12 mg/kg, Study18060, 12 mg/kg, read-out: Mean [Brain]): 3.74 µM
concentration at 2 h ([3]; 12 mg/kg, Study18060, 12 mg/kg, read-out: Mean [Palsma]): 22.9 µM
concentration at 2 h ([3]; 100 mg/kg, Study18068, 100 mg/kg, read-out: Mean [Brain]): 38.2 µM
concentration at 2 h ([3]; 100 mg/kg, Study18068, 100 mg/kg, read-out: Mean [Palsma]): 73.5 µM
